Patent US5990346A, “Prostaglandins and processes for production thereof” (Teijin Limited, priority 1995, dated 1999)

Tested on: platelets (platelet aggregation)
Assay: Inhibitory activity of platelet aggregation in rats
Format: cell-based, Wistar rats (male)
Settings: rat platelet rich plasma; 100 μM adenosine 2-phosphoric acid (5 μl) induced; 37° C.; read-out: Activity Suppressing Platelet Aggregation (Rats) IC50
Experimental: Measurement of Inhibitory Activity of Platelet Aggregation in Rats
Wistar rats (male, approximately 400 g) were made to fast for 1 day, then the entire blood was taken from the abdominal artery under anesthesia by ether. To this was added a 3.8% aqueous solution of sodium citrate in a 1/10 amount followed by immediate mixture. This was centrifuged at 1000 rpm for 10 minutes. The top layer was used as the platelet rich plasma. The bottom layer was centrifuged at 3000 rpm for 10 minutes and the top layer was used as the platelet poor plasma. The platelet rich plasma was diluted by the platelet poor plasma to give a platelet count of […]. This was used for the measurement. Note that the platelets were measured using an automatic blood cell counter MEK-4500 (Nihon Koden). The platelet aggregation was measured by measuring the turbidity using an NBS HEMATRACER 801 (M. C. Medical). 90 μl of the platelets were placed in cuvettes, then 5 μl of the different test compounds were added to give the target final concentration, then these were heated for 1 minute at 37° C., then 5 μl of an aqueous solution of 100 μM adenosine 2-phosphoric acid (M. C. Medical) was added to cause platelet aggregation. The activity inhibiting aggregation was found from the following formula: […]
Aggregation inhibiting rate (%)
={1-(maximum change in turbidity at time of addition of test compound)
.div.(maximum change in turbidity at time of no addition of test compound)}

SMILES | IC50 [nM]
CCCC[C@@H](C)C[C@H](O)/C=C/[C@@H]1C(SCCCCCC(=O)OC)=C(C)C[C@H]1O [drawing 103] | 4500
CCCC[C@@H](C)C[C@H](O)/C=C/[C@@H]1C(SCCCCCC(=O)OC)=CC[C@H]1O [drawing 104] | 760
CCCC[C@@H](C)C[C@H](O)/C=C/[C@@H]1C(SCCCCCC(=O)O)=CC[C@H]1O [drawing 105] | 2200

Tested on: THP-1 cells (cell migration caused by MCP-1)
Assay: Inhibitory activity of cell migration caused by MCP-1 (microchemotaxis chamber)
Format: cell-based
Settings: Homo sapiens, THP-1, 2 h, recombinant human MCP-1 20 ng/ml, 37° C.
Experimental: Measurement of Inhibitory Activity of Cell Migration Caused by MCP-1
To evaluate the activity of the test compounds listed in the following table in inhibiting cell migration, the cell migration caused by the monocyte chemotactic protein MCP-1/MCAF was measured using human premonocyte-derived leukemia cells THP-1 (ATCCTIB203) as migrating cells and the method of FALK et al. (J. Immunol. Methods, vol. 33, pp. 239 to 247 (1980)) as follows. That is, to the upper chamber (200 μl) of a 96-well microchemotaxis chamber (made by Neuroprobe Co.) was added 2×10^6 /ml THP-1 cells (10% fetal calf serum (FCS) containing RPMI-1640 medium (made by Flow Laboratories Co.), while to the lower chamber (35 μl) was placed recombinant human MCP-1 (made by Peprotech Co.) diluted by the same solution to give a final concentration of 20 ng/ml. Between the two chambers, a polycarbonate filter (pore size 5 μm, PVP-free, made by Neuroprobe Co.) was affixed. Incubation was performed at 37° C. in the presence of 5% CO2 for 2 hours. The filter was taken out and the cells migrating to the lower surface of the filter were immobilized and stained by a DiffQuick solution (made by Kokusai Shiyaku Co.) Next, a Breedmeter (made by Molecular Device Co.) was used for measurement at a measurement wavelength of 550 nm and the mean value of three wells was found and used as an indicator of the number of migrating cells. At this time, the test compound was added to the upper chamber together with THP-1 cells in various concentrations to find the cell migration inhibitory activity. The cell migration inhibition % was found by dividing the (number of migrating cells caused by MCP-1 added to the lower chamber in the case of addition of the test compound to the upper chamber)-(number of migrating cells in the case of no test compound added to the upper chamber and no MCP-1 added to the lower chamber) by (number of migrating cells caused by MCP-1 added to the lower chamber in the case of no test compound added to the upper chamber)-(number of migrating cells in the case of no test compound added to the upper chamber and no MCP-1 added to the lower chamber).

SMILES | IC50 [nM]
CCCC[C@@H](C)C[C@H](O)/C=C/[C@@H]1C(SCCCCCC(=O)O)=C(C)C[C@H]1O | 72
CCCCCC1=C(SCCCCCC(=O)OC)[C@@H](/C=C/[C@@H](O)C[C@H](C)CCCC)[C@H](O)C1 | 450
CCCC[C@@H](C)C[C@H](O)/C=C/[C@@H]1C(SCCCCCC(=O)OC)=C(CCC(C)(C)C)C[C@H]1O | 600
CCCC[C@@H](C)C[C@H](O)/C=C/[C@@H]1C(SCCCCCC(=O)OC)=C(C(F)(F)F)C[C@H]1O | 2500
CCCC[C@@H](C)C[C@H](O)/C=C/[C@@H]1C(SCCCCCC(=O)OC)=C(C=O)C[C@H]1O | 190
CCCC[C@@H](C)C[C@H](O)/C=C/[C@@H]1C(SCCCCCC(=O)OC)=C(C(=O)OC)C[C@H]1O | 470
CCCC[C@@H](C)C[C@H](O)/C=C/[C@@H]1C(SCCCCCC(=O)OC)=C(C(C)=O)C[C@H]1O | 210
COC(=O)CCCCCSC1=CC[C@@H](O)[C@@H]1/C=C/[C@@H](O)Cc1ccccc1 | 380
COC(=O)CCCCCSC1=C(C)C[C@@H](O)[C@@H]1CCC(O)Cc1ccccc1 (some centres unmarked) | 120
COC(=O)CCCCCSC1=C(C2CC2)C[C@@H](O)[C@@H]1/C=C/C(O)Cc1ccccc1 (single isomer, unassigned) | 200
COC(=O)CCCCCSC1=C(C)CCC1/C=C/[C@@H](O)Cc1ccccc1 (single isomer, unassigned) | 15
COC(=O)CCCCCCC1=C(C)C[C@@H](O)[C@@H]1/C=C/C(O)Cc1ccccc1 (single isomer, unassigned) | 65
COC(=O)COCCCSC1=C(C)C[C@@H](O)[C@@H]1/C=C/C(O)Cc1ccccc1 (single isomer, unassigned) | 360
CC1=C(SCCCCCC(=O)O)[C@@H](/C=C/C(O)Cc2ccccc2)[C@H](O)C1 (single isomer, unassigned) [Example 34] | 16
CCCC[C@@H](C)C[C@H](O)/C=C/[C@@H]1C(SCCCCCC(=O)OC)=C(C)C[C@H]1O [drawing 82] | 26
CCCC[C@@H](C)C[C@H](O)/C=C/[C@@H]1C(SCCCCCC(=O)OC)=CC[C@H]1O [drawing 89] | 13
CCCC[C@@H](C)C[C@H](O)/C=C/[C@@H]1C(SCCCCCC(=O)O)=CC[C@H]1O [drawing 90] | 150

Same assay, conditions: recombinant human MCP-1 20 ng/ml, 37° C., 2 hours

SMILES | IC50 [nM]
COC(=O)CCCCCSC1=C(C)C[C@@H](O)[C@@H]1/C=C/C(O)Cc1ccccc1 (single isomer, unassigned) [drawing 92] | 210
COC(=O)CCCCCSC1=C(C)C[C@@H](O)[C@@H]1/C=C/C(O)Cc1ccccc1 (single isomer, unassigned) [drawing 93] | 10

Tested on: thickening of intima of carotid artery of rat
Assay: Thickening of intima of carotid artery of rat due to balloon catheter
Format: in vivo, Male Wistar rats
Settings: 3.2 μg/rat/hr subcutaneously, 3 days before to 11 days after surgery; measured after 14 days; control 0.935 ± 0.377
Experimental: Thickening of Intima of Carotid Artery of Rat Due to Balloon Catheter
The test was performed in the following manner in accordance with the method of Crose et al. (Lab. Invest., vol. 49, p. 206, 1983). Male Wistar rats having a body weight of 300 to 350 g were used. The neck of each rat was opened under anesthesia by sodium pentobarbitol, then a balloon catheter (Fogarty, 2F) was inserted from the right external carotid artery, until the starting portion of the common carotid artery. The balloon was expanded by physiological saline to such an extent causing a light resistance, then the catheter was pulled out in that state up to the carotid artery to give trauma to the intima. This procedure was repeated three times, then the catheter was withdrawn and the external carotid artery was sewn up. After 14 days, the chest was opened under anesthesia by diethyl ether, refluxing was performed from the aorta by a Carnoa solution (methanol:chloroform:acetic acid=6:3:1), then the right common carotid artery was excised and immobilized by neutral formalin solution. The immobilized carotid artery was dyed by Elasticavan Gieson dye, then the areas of the Media and thickened portion of the Intima were measured by an image resolution device (LUZEX2D). […]

SMILES | Intima/media (Average ± standard error)
CCCC[C@@H](C)C[C@H](O)/C=C/[C@@H]1C(SCCCCCC(=O)OC)=CC[C@H]1O [Example 28, methyl (11R,12S,13E,15S,17R)-11,15-dihydroxy-17,20-dimethyl-7-thiaprosta-8,13-dienoate] | 0.702 ± 0.241

Same assay, conditions: (1-T/C)×100; 3.2 μg/rat/hr subcutaneously; vs control group

SMILES | Suppression Rate (intima thickening suppression rate) [%]
CCCC[C@@H](C)C[C@H](O)/C=C/[C@@H]1C(SCCCCCC(=O)OC)=CC[C@H]1O [Example 28, methyl (11R,12S,13E,15S,17R)-11,15-dihydroxy-17,20-dimethyl-7-thiaprosta-8,13-dienoate] | 25

Tested on: vascular smooth muscle cells (cell migration caused by PDGF)
Assay: Inhibitory activity of cell migration caused by PDGF (Transwell chamber)
Format: cell-based
Settings: human PDGF 10 ng/ml, 37° C., 6 hours
Experimental: Measurement of Inhibitory Activity of Cell Migration Caused by PDGF
To evaluate the activity of the test compounds listed in the following table to inhibit cell migration caused by PDGF, the migrating cells caused by human platelet derived growth factor (PDGF) were measured in the following way using the vascular smooth muscle cells derived from normal human arteries (made by Kurabo) and according to the method of MaCarthy et al. (J. Cell. Biol. 97, 772-777 (1983)). That is, a Transwell Chamber (Costar Co., registered trademark) was used to measure the inhibitory action. The chamber was divided into two layers, upper and lower, by a 8 μm pore size membrane filter (PVP-free polycarbonate filter, Nucleopore Co., registered trademark). […] The cells on the upper surface of the filter were removed by wiping with a cotton swab and the cells that had migrated to the lower surface of the filter were counted under a high output microscope (×200). Usually, five fields were counted per filter. […]

SMILES | IC50 [nM]
CC1=C(SCCCCCC(=O)O)[C@@H](/C=C/C(O)Cc2ccccc2)[C@H](O)C1 (single isomer, unassigned) [Example 34] | 73
COC(=O)CCCCCSC1=C(C)C[C@@H](O)[C@@H]1/C=C/C(O)Cc1ccccc1 (single isomer, unassigned) [drawing 100] | 81
